Data as given in patent US10570179B2, “Substituted urea depsipeptide analogs as activators of the CLPP endopeptidase” (priority 2016, dated 2020).
Numbered stars: 1 amine (or outer) side, 2 acyl side, 3 side chain; on linkers, the order of the positions; unused ones are H or OH. Bridge positions count the residues as written; N and C are the ends. Square brackets hold non-standard residues; d marks the D form. Peptide text beside a SMILES is read from it. * marks the point of attachment. Phe(3-CF3) = N[C@@H](Cc1cccc(C(F)(F)F)c1)C(=O)O; Piperazine(2S-CO,4-Me) = CN1CCN[C@H](C(=O)O)C1; NH(1,3-benzodioxol-5-yl) = c1cc2c(cc1N*)OCO2; Phe(3-OMe) = COc1cccc(C[C@H](N)C(=O)O)c1; Phe(3-Me) = Cc1cccc(C[C@H](N)C(=O)O)c1; X4 = O=C1CN([*:1])[C@H](C(=O)[*:2])CN1; NH(4-Cl-2-F-phenyl) = Fc1cc(Cl)ccc1N*; Pro(4R-Me) = C[C@H]1CN[C@H](C(=O)O)C1; NH(4-Et-phenyl) = CCc1ccc(N*)cc1; NH(4-Me-phenyl) = Cc1ccc(N*)cc1; aThr = C[C@H](O)[C@H](N)C(=O)O; Pip = O=C(O)[C@@H]1CCCCN1; X3 = c1cc2c(cc1N*)OCCO2; CO = O=C([*:1])[*:2]

Tests used:
[1] = Microsomal metabolic stability; format: in vitro ADME, mouse
Experimental: Compounds were initially prepared by dissolving them into DMSO at a final concentration of 10 mM. NADPH regenerating solutions A and B and mouse liver microsomes (CD-1) were obtained from BD Gentest (Woburn, Mass.). Ninety-six well deep well plates were obtained from MidWest Scientific Inc (Valley Park, Mo.).
Sample preparation for microsomal stability was modified from methods of Di, L., et al., Int J Pharm. 2005 Jun. 13; 297(1-2):110-9. A set of incubation times of 0, 15, 30, 60, 120, and 240 minutes were used. Mouse liver microsomal solutions were prepared by adding 58 μL of concentrated human or mouse liver microsomes (20 mg/mL protein concentration) to 1.756 mL of 0.1 M potassium phosphate buffer (pH 7.4) and 5 μL of 0.5 M EDTA to make a 0.6381 mg/mL (protein) microsomal solution. NADPH regenerating agent contained 113 μL of NADPH A, 23 μL of NADPH B, and 315 μL of 0.1 M potassium phosphate buffer (pH 7.4). The diluted test compound solutions (2 μL) were each added directly to a 1.79 mL of liver microsomal solution. This solution was mixed and 90 μL was transferred to 6 time points plates (each in triplicate wells). For the time 0 plate, 225 μL of cold acetonitrile with internal standard ([…] warfarin) was added to each well, followed by addition of NADPH regenerating agent (22.5 μL) and no incubation. For other five time points' plate, NADPH regenerating agent (22.5 μL) was added to each well to initiate the reaction. The plates were incubated at 37° C. for the required time, followed by quenching of the reaction by adding 225 μL of cold acetonitrile with internal standard (4 μg/ml warfarin). All of the plates were sealed and mixed well at 600 rpm for 10 minutes followed by centrifugation at 4000 rpm for 20 minutes. The supernatants (120 μL) were transferred to analytical plates for analysis by LCMS. LCMS conditions were described in the materials and instrumentation section above. The metabolic stability is evaluated via the half-life from least-squares fit of the multiple time points based on first-order kinetics.

[2] = molecular target: T1, S. aureus ClpP (Sa-ClpP) (Staphylococcus aureus, UniProt Q2G036); assay: Casein-BODIPY digestion assay (ClpP activation); format: biochemical
T1 construct: made in house; host or cells: E. coli BL21 (DE3)
T1 sequence (Q2G036 whole entry): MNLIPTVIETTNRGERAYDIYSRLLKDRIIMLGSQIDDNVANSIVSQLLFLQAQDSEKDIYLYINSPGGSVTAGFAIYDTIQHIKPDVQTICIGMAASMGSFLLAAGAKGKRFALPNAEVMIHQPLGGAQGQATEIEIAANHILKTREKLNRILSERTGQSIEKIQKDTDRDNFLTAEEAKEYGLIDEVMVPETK

SMILES	Mouse ([1]; microsomal metabolic stability half-life, mouse liver microsomes) [h]	EC50 [2] [µM]	Mouse ([1]; CD-1, mouse, pH 7.4) [h]
Cc1ccc(NC(=O)N[C@@H](Cc2cccc(C)c2)C(=O)N[C@H]2COC(=O)[C@@H]3C[C@@H](C)CN3C(=O)[C@H](C)NC(=O)[C@@H]3CN(C)CCN3C(=O)[C@@H]3CCCN3C2=O)cc1 [Compound 15, (S)-3-(M-TOLYL)-2-(3-(P-TOLYL)UREIDO)-N-((6AS,12S,15AS,17R,21S,23AS)-2,17,21-TRIMETHYL-6,11,15,20,23-PENTAOXOOCTADECAHYDRO-2H,6H,11H,15H-PYRAZINO[2,1-I]DIPYRROLO[2,1-C:2′,1′-L][1]OXA[4,7,10,13]TETRAAZACYCLOHEXADECIN-12-YL)PROPANAMIDE] ({NH(4-Me-phenyl)-CO}-[Phe(3-Me)]SP[Piperazine(2S-CO,4-Me)]A[Pro(4R-Me)]; ester 2-C)	2.28 ± 0.16	1.58 ± 0.2	
CCc1ccc(NC(=O)N[C@@H](Cc2cccc(C)c2)C(=O)N[C@H]2COC(=O)[C@@H]3C[C@@H](C)CN3C(=O)[C@H](C)NC(=O)[C@@H]3CN(C)CCN3C(=O)[C@@H]3CCCN3C2=O)cc1 [Compound 16, (S)-2-(3-(4-ETHYLPHENYL)UREIDO)-3-(M-TOLYL)-N-((6AS,12S,15AS,17R,21S,23AS)-2,17,21-TRIMETHYL-6,11,15,20,23-PENTAOXOOCTADECAHYDRO-2H,6H,11H,15H-PYRAZINO[2,1-I]DIPYRROLO[2,1-C:2′,1′-L][1]OXA[4,7,10,13]TETRAAZACYCLOHEXADECIN-12-YL)PROPANAMIDE] ({NH(4-Et-phenyl)-CO}-[Phe(3-Me)]SP[Piperazine(2S-CO,4-Me)]A[Pro(4R-Me)]; ester 2-C)		0.63 ± 0.1	1.80 ± 0.09
Cc1cccc(C[C@H](NC(=O)Nc2ccc3c(c2)OCO3)C(=O)N[C@H]2COC(=O)[C@@H]3C[C@@H](C)CN3C(=O)[C@H](C)NC(=O)[C@@H]3CN(C)CCN3C(=O)[C@@H]3CCCN3C2=O)c1 [Compound 17, (S)-2-(3-(BENZO[D][1,3]DIOXOL-5-YL)UREIDO)-3-(M-TOLYL)-N-((6AS,12S,15AS,17R,21S,23AS)-2,17,21-TRIMETHYL-6,11,15,20,23-PENTAOXOOCTADECAHYDRO-2H,6H,11H,15H-PYRAZINO[2,1-I]DIPYRROLO[2,1-C:2′,1′-L][1]OXA[4,7,10,13]TETRAAZACYCLOHEXADECIN-12-YL)PROPANAMIDE] ({NH(1,3-benzodioxol-5-yl)-CO}-[Phe(3-Me)]SP[Piperazine(2S-CO,4-Me)]A[Pro(4R-Me)]; ester 2-C)		2.64 ± 0.1	4.83 ± 0.46
C[C@@H]1C[C@H]2C(=O)OC[C@H](NC(=O)[C@H](Cc3cccc(C(F)(F)F)c3)NC(=O)Nc3ccc(Cl)cc3F)C(=O)N3CCC[C@H]3C(=O)N3CCN(C)C[C@H]3C(=O)N[C@@H](C)C(=O)N2C1 [Compound 18, (S)-2-(3-(4-CHLORO-2-FLUOROPHENYL)UREIDO)-3-(3-(TRIFLUOROMETHYL)PHENYL)-N-((6AS,12S,15AS,17R,21S,23AS)-2,17,21-TRIMETHYL-6,11,15,20,23-PENTAOXOOCTADECAHYDRO-2H,6H,11H,15H-PYRAZINO[2,1-I]DIPYRROLO[2,1-C:2′,1′-L][1]OXA[4,7,10,13]TETRAAZACYCLOHEXADECIN-12-YL)PROPANAMIDE] ({NH(4-Cl-2-F-phenyl)-CO}-[Phe(3-CF3)]SP[Piperazine(2S-CO,4-Me)]A[Pro(4R-Me)]; ester 2-C)		1.75 ± 0.1	1.88 ± 0.12
COc1cccc(C[C@H](NC(=O)Nc2ccc(Cl)cc2F)C(=O)N[C@H]2COC(=O)[C@@H]3C[C@@H](C)CN3C(=O)[C@H](C)NC(=O)[C@@H]3CN(C)CCN3C(=O)[C@@H]3CCCN3C2=O)c1 [Compound 19, (S)-2-(3-(4-CHLORO-2-FLUOROPHENYL)UREIDO)-3-(3-METHOXYPHENYL)-N-((6AS,12S,15AS,17R,21S,23AS)-2,17,21-TRIMETHYL-6,11,15,20,23-PENTAOXOOCTADECAHYDRO-2H,6H,11H,15H-PYRAZINO[2,1-I]DIPYRROLO[2,1-C:2′,1′-L][1]OXA[4,7,10,13]TETRAAZACYCLOHEXADECIN-12-YL)PROPANAMIDE] ({NH(4-Cl-2-F-phenyl)-CO}-[Phe(3-OMe)]SP[Piperazine(2S-CO,4-Me)]A[Pro(4R-Me)]; ester 2-C)		2.52 ± 0.2	0.80 ± 0.05
Cc1cccc(C[C@H](NC(=O)Nc2ccc(Cl)cc2F)C(=O)N[C@@H]2C(=O)N3CCC[C@H]3C(=O)N3CC(=O)NC[C@H]3C(=O)N[C@@H](C)C(=O)N3C[C@H](C)C[C@H]3C(=O)O[C@H]2C)c1 [Compound 20, (S)-2-(3-(4-CHLORO-2-FLUOROPHENYL)UREIDO)-3-(M-TOLYL)-N-((6AS,12S,13S,15AS,17R,21S,23AS)-13,17,21-TRIMETHYL-3,6,11,15,20,23-HEXAOXOOCTADECAHYDRO-2H,6H,11H,15H-PYRAZINO[2,1-I]DIPYRROLO[2,1-C:2′,1′-L][1]OXA[4,7,10,13]TETRAAZACYCLOHEXADECIN-12-YL)PROPANAMIDE] ({NH(4-Cl-2-F-phenyl)-CO}-[Phe(3-Me)][aThr]P[X4]A[Pro(4R-Me)]; ester 2-C)		0.71 ± 0.08	6.24 ± 0.7
Cc1cccc(C[C@H](NC(=O)Nc2ccc3c(c2)OCCO3)C(=O)N[C@@H]2C(=O)N3CCC[C@H]3C(=O)N3CCCC[C@H]3C(=O)N[C@@H](C)C(=O)N3C[C@H](C)C[C@H]3C(=O)O[C@H]2C)c1 [Compound 21, (S)-2-(3-(2,3-DIHYDROBENZO[B][1,4]DIOXIN-6-YL)UREIDO)-3-(M-TOLYL)-N-((2R,6S,8AS,14AS,20S,21S,23AS)-2,6,21-TRIMETHYL-5,8,14,19,23-PENTAOXOOCTADECAHYDRO-1H,5H,14H,19H-PYRIDO[2,1-I]DIPYRROLO[2,1-C:2′,1′-L][1]OXA[4,7,10,13]TETRAAZACYCLOHEXADECIN-20-YL)PROPANAMIDE] ({X3-CO}-[Phe(3-Me)][aThr]P[Pip]A[Pro(4R-Me)]; ester 2-C)		0.37 ± 0.04	3.38 ± 0.37
Cc1cccc(C[C@H](NC(=O)Nc2ccc3c(c2)OCCO3)C(=O)N[C@H]2COC(=O)[C@@H]3C[C@@H](C)CN3C(=O)[C@H](C)NC(=O)[C@@H]3CCCCN3C(=O)[C@@H]3CCCN3C2=O)c1 [Compound 22, (S)-2-(3-(2,3-DIHYDROBENZO[B][1,4]DIOXIN-6-YL)UREIDO)-N-((2R,6S,8AS,14AS,20S,23AS)-2,6-DIMETHYL-5,8,14,19,23-PENTAOXOOCTADECAHYDRO-1H,5H,14H,19H-PYRIDO[2,1-I]DIPYRROLO[2,1-C:2′,1′-L][1]OXA[4,7,10,13]TETRAAZACYCLOHEXADECIN-20-YL)-3-(M-TOLYL)PROPANAMIDE]		0.65 ± 0.06	4.48 ± 0.61
Cc1cccc(C[C@H](NC(=O)Nc2ccc3c(c2)OCO3)C(=O)N[C@H]2COC(=O)[C@@H]3C[C@@H](C)CN3C(=O)[C@H](C)NC(=O)[C@@H]3CCCCN3C(=O)[C@@H]3CCCN3C2=O)c1 [Compound 23, (S)-2-(3-(BENZO[D][1,3]DIOXOL-5-YL)UREIDO)-N-((2R,6S,8AS,14AS,20S,23AS)-2,6-DIMETHYL-5,8,14,19,23-PENTAOXOOCTADECAHYDRO-1H,5H,14H,19H-PYRIDO[2,1-I]DIPYRROLO[2,1-C:2′,1′-L][1]OXA[4,7,10,13]TETRAAZACYCLOHEXADECIN-20-YL)-3-(M-TOLYL)PROPANAMIDE]		0.35 ± 0.09	35.8 ± 14.7
